# Experimental data from PubChem BioAssay AID179 (DTP/NCI, 2004).
# Activity calls are given as the source filed them.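 How the source made its calls: active means compounds giving half or more protection of infected cells from virus-caused growth loss, again on retest; inactive means the rest.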 Where a SMILES comes first, the peptide text is derived from it. [ ]: non-standard residue; d: D form. pGlu = O=C1CC[CH](C(=O)O)N1
# Test system: CEM cells HIV-1 protection, formazan growth assay
# Assay: NCI AIDS Antiviral Assay
# Settings: for IC50: measured here: growth of uninfected CEM cells
# Outline: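 CEM (human) cells, HIV-1 infected vs uninfected, 5-point dosing, formazan growth read-out. Retest threshold 50% protection.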
SMILES,EC50,IC50,outcome
CC1(C)CCc2cc3c(cc2O1)OC(C)(C)C1c2cc(O)c(OCc4ccccc4)cc2OC31 (stereo not drawn),> 200 µM,61.7 µM,–
O=C1c2ccccc2C2C1C(c1ccccc1)C1(Cc3ccccc3C1=O)C2c1ccccc1 (stereo not drawn),> 200 µM,38.9 µM,–
CCCNC(=O)N(C)S(=O)(=O)c1ccc(Cl)cc1,–,–,inactive
S=c1sc2nc(Cl)nc(Cl)c2s1,> 200 µM,13.2 µM,–
CC(C)c1cccc(C(C)C)c1NC(=O)C(=O)C(C(=O)c1ccccc1-c1ccccc1)C1OC(=O)c2ccccc21 (stereo not drawn),> 64.6 µM,25.1 µM,–
O=C(O)CCNCCCCNCCC(=O)O,> 813 µM,> 813 µM,–
C1=CC(N(c2ccccc2)C2C=CCCC2)CCC1 (stereo not drawn),–,–,inactive
O=C1c2ccccc2C2NCCCN12 (stereo not drawn),–,–,inactive
CC(C)CC(=O)[O-].CC(C)CC(=O)[O-].N.N.N.N.[Co+3].[O-][Cl+3]([O-])([O-])O.[O-][Cl+3]([O-])([O-])[O-],–,–,inactive
COC(=O)N/N=C(/CCC(=O)Nc1ccc(C)c(C)c1)CC(=O)C(C)(C)C,> 661 µM,> 661 µM,–
CC1CC[P+](c2ccccc2)(c2ccccc2)c2c1ccc1ccccc21 (stereo not drawn),> 17.8 µM,0.741 µM,–
Cc1cc(-c2ccc(N=Nc3c(S(=O)(=O)O)cc4cc(S(=O)(=O)O)cc(N)c4c3O)c(C)c2)ccc1N=Nc1ccc2c(S(=O)(=O)O)ccc(N)c2c1O,–,–,inactive
COc1ccc(/C=C(\C#N)c2nc(-c3cc4ccccc4oc3=O)cs2)cc1,162 µM,> 200 µM,–
N#Cc1ccc(/C=C(/C(=O)c2ccccc2)c2ccccc2)cc1,> 17 µM,9.55 µM,–
C#CCOCn1cnc2c(Cl)ncnc21,> 1120 µM,79.4 µM,–
COC(=O)C1C2C=CC(C2)N1S(=O)(=O)c1ccccc1 (stereo not drawn),> 200 µM,> 200 µM,–
O=P(O)(O)OC1C(OP(=O)(O)O)C(OP(=O)(O)O)C(OP(=O)(O)O)C(OP(=O)(O)O)C1OP(=O)(O)O (stereo not drawn),> 200 µM,> 200 µM,–
O=c1[nH]c2ccccc2nc1/C=C/NC(=S)Nc1ccccc1,> 200 µM,> 200 µM,–
O=S(=O)(O)c1ccc2c(N=Nc3ccc(/C=C/c4ccc(N=Nc5c(O)ccc6cc(S(=O)(=O)O)ccc56)cc4S(=O)(=O)O)c(S(=O)(=O)O)c3)c(O)ccc2c1,7.76 µM,97.7 µM,–
Cc1cc(Br)ccc1N=Nc1c(C)noc1-c1ccccc1,–,–,inactive
CCOc1ccccc1N=Nc1c(-c2ccccc2)nn(C(=O)CC(=O)Nc2cccc(Cl)c2)c1-c1ccccc1,> 45.7 µM,> 45.7 µM,–
CCN1C(=O)C(C)C=C(C)C=C1C (stereo not drawn),> 724 µM,> 724 µM,–
CC(=O)Nc1ccc(S(=O)c2ccc(NC(C)=O)cc2)cc1,> 81.3 µM,> 81.3 µM,–

SMILES,EC50,IC50,outcome
CCN(CC)c1c(C(C)(C)C)c(=O)n2ccsc2c1OC(C)=O,> 200 µM,32.4 µM,–
O=[N+]([O-])c1cccc(C2=NOC3C4CCC(C4)C23)c1 (stereo not drawn),0.135 µM,66.1 µM,–
CCOC(=O)/C(=C\c1ccc(Cl)cc1)P(=O)(OCC)OCC,> 15.1 µM,14.1 µM,–
Nc1nc(N)nc(Nc2ccc([As](=O)(O)O)cc2)n1,> 21.9 µM,> 21.9 µM,–
Nc1ccc(C(=O)N/C(=C\C=C\c2ccco2)c2nc3c4c(ccc3[nH]2)C(=O)c2ccccc2C4=O)cc1,–,–,inactive
CC(=O)N1OC2(C)c3ccccc3C1(C)c1ccccc12,> 25.7 µM,23.4 µM,–
CCCCCCCCCCCCCCCC(=O)OCC1OC(n2cc(F)c(=O)[nH]c2=O)C(NC(=O)N(CCCl)N=O)C(O)C1O (stereo not drawn),> 20.4 µM,3.47 µM,–
CCOC(=O)/C=C/SCCNC(=O)OCC,> 204 µM,120 µM,–
Cc1cccc(NC(=O)CSc2nnc(Cc3ccccc3)o2)c1,> 537 µM,> 537 µM,–
C[N+]1(C)CCC(C#N)(c2ccccc2)CC1,> 724 µM,–,–
Cc1ccc2oc(=O)c(C#N)c(/C=C\c3ccccc3O)c2c1,> 100 µM,5.62 µM,–
O=C1[C@@H]2C[C@@H](O)CN2C(=O)c2ccccc2N1CCCO,–,–,inactive
CC(C)OC(=O)c1ccc(CCC2=CC(=O)C(Br)=CC2=O)cc1,> 200 µM,8.71 µM,–
CCC(=O)NC(Nc1ccccc1F)(C(F)(F)F)C(F)(F)F,> 200 µM,> 200 µM,–
O=C(N/N=C/c1cccc(O)c1O)N/N=C/c1cccc(O)c1O,> 200 µM,6.76 µM,–
COc1ccc(-c2nc(N)c(C#N)c3c2CCSc2ccc(C)cc2-3)cc1OC,> 200 µM,11.7 µM,–
COc1ccc2c(c1)CCN1CCCc3ccccc3C21 (stereo not drawn),> 200 µM,26.9 µM,–
Cn1c(=O)c2[nH]cnc2n(CC(=O)O)c1=O,> 1120 µM,> 1120 µM,–
CN1C2CC(=O)CC1[C@@H]1OC(c3ccccc3)O[C@H]21 (stereo partly drawn),> 200 µM,> 200 µM,–
COc1ccc2c(c1)c(=O)c1c(NCCNCCO)ccc3c(=O)n(CCN(C)C)c(=O)n2c31,> 0.0427 µM,0.0339 µM,–
CC(NC(=O)C(Cc1cnc[nH]1)NC(=O)C1CCC(=O)N1)C(N)=O (stereo not drawn) ([pGlu]-His-Ala-NH2; configuration not given here),> 200 µM,> 200 µM,–
CC(C)=CCOc1cc(NC(=S)c2ccoc2C)ccc1Cl,0.0759 µM,30.2 µM,–
O=c1[nH]c2ccccc2c(O)c1N=Nc1cccc(C(F)(F)F)c1,> 200 µM,> 200 µM,–

SMILES,EC50,IC50,outcome
CCOC(=O)C1(C/C=C/CCl)CCCC1=O (stereo not drawn),> 200 µM,10 µM,–
O=C(CCc1ccc(O)cc1)NCCCNC(=O)CCc1ccc(O)cc1,> 200 µM,> 200 µM,–
COc1ccc(C2=C(OC(=O)N(C)C)c3cccn3-c3cc(Cl)ccc3S2)cc1,> 100 µM,87.1 µM,–
CC(=Nc1ccc(N(C)C)cc1)c1ccccc1,> 200 µM,28.8 µM,–
Cn1c2ccccc2n2c3ccccc3c(=O)c(C#N)c12,> 200 µM,2.57 µM,–
CCSc1ccc([N+](=O)[O-])c2c(SCC)c3ccccc3nc12,–,–,inactive
COc1cc(CC(=O)O)c([N+](=O)[O-])cc1OC,> 1020 µM,891 µM,–
CC(C)OC(=O)c1ccc(NCc2cc(O)ccc2O)cc1,> 200 µM,2.19 µM,–
C=C1C2CCC3(CCC4C5(C)CCCC4(C=[N+](CCO)C5)C3C2)C1O (stereo not drawn),–,–,inactive
CC1=C(C#N)S(=O)(=O)c2c(oc(C)c2C)N1,> 200 µM,> 200 µM,–
NNc1nc(Nc2ccccc2)nc(Nc2ccccc2)n1,> 200 µM,38 µM,–
c1ccc2sc(CN(Cc3nc4ccccc4s3)Cc3nc4ccccc4s3)nc2c1,> 40.7 µM,> 40.7 µM,–
Nc1cc2ncnn2c(SCC(=O)N/N=C/C(Br)=C\c2ccccc2)n1,> 200 µM,7.94 µM,–
CCOC(=O)C1=C(Nc2ccc(Cl)cc2Cl)OC/C1=N\NS(=O)(=O)c1ccc(C)cc1,> 28.2 µM,> 28.2 µM,–
O=[N+]([O-])C(Cl)C(Cl)c1ccc(Cl)cc1 (stereo not drawn),> 200 µM,7.41 µM,–
O=C1N[C@H]2[C@H](O)[C@H](O)[C@@H](O)[C@H](O)[C@@H]2c2cc3c(c(O)c21)OCO3,–,–,inactive
CCCN(CCC)C(=S)N/N=C/c1ccccn1,> 2 µM,0.0126 µM,–
Oc1c([Si](c2ccccc2)(c2ccccc2)c2ccccc2)cc2ccccc2c1-c1c(O)c([Si](c2ccccc2)(c2ccccc2)c2ccccc2)cc2ccccc12,> 50.1 µM,> 50.1 µM,–
C1CCCCC2(CCCCCCCCC3(CCC1)SCCS3)SCCS2,> 200 µM,> 200 µM,–
Cc1cc2c(c(C(N)=O)c1C)-c1cccc(F)c1C2=O,–,–,inactive
CC(C)(C)N=CN1C=Cc2nc3ccccc3cc2C1,–,–,inactive
C[n+]1c(-c2ccc(/C=N/NC(=S)N/N=C/c3ccc(-c4cn5ccccc5[n+]4C)cc3)cc2)cn2ccccc21,> 39.8 µM,21.9 µM,–
O=C(N/C(=C\c1ccccc1)c1nc2ccccc2c(=O)o1)c1ccccc1,> 200 µM,> 200 µM,–

SMILES,EC50,IC50,outcome
COc1ccc(C2OC(N)=C(C#N)C3=C2C(C)CCC3)cc1OC (stereo not drawn),501 µM,631 µM,–
COCN1COCN(C)C1=O,> 1550 µM,> 1550 µM,–
O=c1oc2ccccc2c(O)c1Cc1ccccc1Cc1c(O)c2ccccc2oc1=O,> 200 µM,102 µM,–
Cc1cc(C)nc(SC(F)(F)c2nc3ccccc3o2)n1,–,–,active
Cn1c2c(c3ccccc31)C(=O)CC2(C)C,> 123 µM,66.1 µM,–
CC(=O)C1CCC2C1(C)CC1OC13C21C=CC2(CC(O)CCC23C)C2C(=O)OC(=O)C21 (stereo not drawn),> 302 µM,> 302 µM,–
Nc1c(Cl)ncnc1NCCO,> 200 µM,> 200 µM,–
O=c1cc(O)cc2n1CCC2,> 1660 µM,> 1660 µM,–
NC1CC2NC3CCCCC3NC2CC1N (stereo not drawn),> 200 µM,27.5 µM,–
CC1=NC=C(O)c2ccccc2O1,> 40.7 µM,> 40.7 µM,–
CN1c2ccccc2S(=O)(=O)n2c(COc3ccc(Cl)cc3)nnc21,> 200 µM,> 200 µM,–
c1csc(-c2csc(-c3cccs3)c2)c1,> 200 µM,40.7 µM,–
[N-]=[N+]=C(C(=O)C(=[N+]=[N-])C(=O)c1ccccc1)C(=O)c1ccccc1,> 112 µM,> 112 µM,–
O=C1CC(=O)NC(=NN2C(=O)CSC2c2ccc(Cl)cc2)N1 (stereo not drawn),> 200 µM,105 µM,–
C1=Nc2ccc(cc2)-c2ccc(cc2)N=Cc2ccc(cc2)OCc2cccc(n2)COc2ccc1cc2,> 100 µM,> 100 µM,–
CCOc1cccc2ccc[n+](CC)c12,> 251 µM,25.1 µM,–
COC1=C(C)C(=O)c2ncccc2C1=O,–,–,inactive
CC(=O)OC12C(C)=C(C)C(=O)N1c1ccccc1N2C(C)=O (stereo not drawn),–,–,inactive
COc1ccc(N2C(=O)/C(=C/c3ccc(N(CCC#N)CCC#N)cc3)N=C2c2ccccc2)cc1,> 200 µM,> 200 µM,–
Cn1c(=O)n2n(c1=O)C(C)(C13CC4CC(CC(C4)C1)C3)C13CC4CC(CC1C4)CC23 (stereo not drawn),> 100 µM,> 100 µM,–
O=C(O)/C=C\C(=O)NNC(=O)/C=C\C(=O)O,> 1100 µM,> 1100 µM,–
